In the supplement of paper PMC11061612:

How the values were obtained:
SG3199 = compound: CC1=CN2[C@@H](C1)C=NC3=CC(=C(C=C3C2=O)OC)OCCCCCOC4=C(C=C5C(=C4)N=C[C@@H]6CC(=CN6C5=O)C)OC [SG3199]; conditions: max 0.001 µM
Summary of the method: (§1)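 Cancer cell lines were dosed for 72 hours (final DMSO typically 0.2%) after 24 hours at 37°C and 5% CO2 in 1536-well plates containing 7.5 μl DMEM/F12 or RPMI with 10% FBS. Viability came from CellTiter-Glo 2.0 luminescence, scaled between blank-well and DMSO-well means, and dose responses were fitted to a two-parameter logistic curve with a non-linear mixed effects model. The single-agent IC50 was obtained from this fit.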

AZD1390 = compound: CC(C)n1c(=O)n(C)c2cnc3cc(F)c(-c4ccc(OCCCN5CCCCC5)nc4)cc3c21 [AZD1390]; conditions: max 0.3 µM
Summary of the method: as §1

Doxorubicin = compound: COc1cccc2c1C(=O)c1c(O)c3c(c(O)c1C2=O)C[C@@](O)(C(=O)CO)C[C@@H]3O[C@H]1C[C@H](N)[C@H](O)[C@H](C)O1 [Doxorubicin]; conditions: max 1 µM
Summary of the method: as §1

AZD7648 = compound: Cc1cc2ncnn2cc1Nc1ncc2c(n1)n(C1CCOCC1)c(=O)n2C [AZD7648]; conditions: max 10 µM
Summary of the method: as §1

Dasatinib = compound: CC1=C(C(=CC=C1)Cl)NC(=O)C2=CN=C(S2)NC3=CC(=NC(=N3)C)N4CCN(CC4)CCO [Dasatinib]; conditions: max 2 µM
Summary of the method: as §1

Olaparib = compound: O=C(c1cc(Cc2n[nH]c(=O)c3ccccc23)ccc1F)N1CCN(C(=O)C2CC2)CC1 [Olaparib]; conditions: max 10 µM
Summary of the method: as §1

AZD5991 = compound: Cc1c2c(nn1C)CSCc1cc(n(C)n1)CSc1cc(c3ccccc3c1)OCCCc1c(C(=O)O)n(C)c3c-2c(Cl)ccc13 [AZD5991]; conditions: max 1 µM
Summary of the method: as §1

AZD0156 = compound: CN(C)CCCOc1ccc(-c2ccc3ncc4c(c3c2)n(C2CCOCC2)c(=O)n4C)cn1 [AZD0156]; conditions: max 3 µM
Summary of the method: as §1

AZD1775 = compound: C=CCn1c(=O)c2cnc(Nc3ccc(N4CCN(C)CC4)cc3)nc2n1-c1cccc(C(C)(C)O)n1 [AZD1775]; conditions: max 3 µM
Summary of the method: as §1

Alisertib = compound: COc1cc(Nc2ncc3c(n2)-c2ccc(Cl)cc2C(c2c(F)cccc2OC)=NC3)ccc1C(=O)O [Alisertib]; conditions: max 10 µM
Summary of the method: as §1

Gefitinib = compound: COc1cc2ncnc(Nc3ccc(F)c(Cl)c3)c2cc1OCCCN1CCOCC1 [Gefitinib]; conditions: max 10 µM
Summary of the method: as §1

Crizotinib = compound: C[C@@H](Oc1cc(-c2cnn(C3CCNCC3)c2)cnc1N)c1c(Cl)ccc(F)c1Cl [Crizotinib]; conditions: max 10 µM
Summary of the method: as §1

SN-38 = compound: CCc1c2c(nc3ccc(O)cc13)-c1cc3c(c(=O)n1C2)COC(=O)[C@]3(O)CC [SN-38]; conditions: max 0.3 µM
Summary of the method: as §1

AZD6738 = compound: C[C@@H]1COCCN1C2=NC(=NC(=C2)C3(CC3)[S@](=N)(=O)C)C4=C5C=CNC5=NC=C4 [AZD6738]; conditions: max 10 µM
Summary of the method: as §1

Lapatinib = compound: CS(=O)(=O)CCNCc1ccc(-c2ccc3ncnc(Nc4ccc(OCc5cccc(F)c5)c(Cl)c4)c3c2)o1 [Lapatinib]; conditions: max 10 µM
Summary of the method: as §1

Selumetinib = compound: Cn1cnc2c(F)c(Nc3ccc(Br)cc3Cl)c(C(=O)NOCCO)cc21 [Selumetinib]; conditions: max 10 µM
Summary of the method: as §1

Prexasertib = compound: COc1cccc(OCCCN)c1-c1cc(Nc2cnc(C#N)cn2)n[nH]1 [Prexasertib]; conditions: max 1 µM
Summary of the method: as §1

AZD4320 = compound: CN(CC[C@H](CSC1=CC=CC=C1)NC2=C(C=C(C=C2)S(=O)(=O)NC(=O)C3=CC=C(C=C3)N4CCC(CC4)[C@H](C5=CC=CC=C5C6=CC=C(C=C6)Cl)O)S(=O)(=O)C(F)(F)F)CCO [AZD4320]; conditions: max 1 µM
Summary of the method: as §1

Savolitinib = compound: C[C@@H](c1ccc2nccn2c1)n1nnc2ncc(-c3cnn(C)c3)nc21 [Savolitinib]; conditions: max 1 µM
Summary of the method: as §1

AZD2811 = compound: CCN(CCO)CCCOc1ccc2c(Nc3cc(CC(=O)Nc4cccc(F)c4)[nH]n3)ncnc2c1 [AZD2811]; conditions: max 1 µM
Summary of the method: as §1

Capivasertib = compound: C1CN(CCC1(C(=O)N[C@@H](CCO)C2=CC=C(C=C2)Cl)N)C3=NC=NC4=C3C=CN4 [Capivasertib]; conditions: max 10 µM
Summary of the method: as §1

Venetoclax = compound: CC1(C)CCC(CN2CCN(c3ccc(C(=O)NS(=O)(=O)c4ccc(NCC5CCOCC5)c([N+](=O)[O-])c4)c(Oc4cnc5[nH]ccc5c4)c3)CC2)=C(c2ccc(Cl)cc2)C1 [Venetoclax]; conditions: max 1 µM
Summary of the method: as §1

Palbociclib = compound: CC(=O)c1c(C)c2cnc(Nc3ccc(N4CCNCC4)cn3)nc2n(C2CCCC2)c1=O [Palbociclib]; conditions: max 10 µM
Summary of the method: as §1

Taselisib = compound: Cc1nc(-c2cn3c(n2)-c2ccc(-c4cnn(C(C)(C)C(N)=O)c4)cc2OCC3)n(C(C)C)n1 [Taselisib]; conditions: max 10 µM
Summary of the method: as §1

Trametinib = compound: CC(=O)Nc1cccc(-n2c(=O)n(C3CC3)c(=O)c3c(Nc4ccc(I)cc4F)n(C)c(=O)c(C)c32)c1 [Trametinib]; conditions: max 1 µM
Summary of the method: as §1

AZD5153 = compound: COc1nnc2ccc(N3CCC(c4ccc(OCCN5CCN(C)C(=O)[C@H]5C)cc4)CC3)nn12 [AZD5153]; conditions: max 1 µM
Summary of the method: as §1

AZD8186 = compound: C[C@@H](Nc1cc(F)cc(F)c1)c1cc(C(=O)N(C)C)cc2c(=O)cc(N3CCOCC3)oc12 [AZD8186]; conditions: max 3 µM
Summary of the method: as §1

Cell Line	IC50, cell viability 72 h (SG3199) [nM]	IC50, cell viability 72 h (AZD1390) [nM]	IC50, cell viability 72 h (Doxorubicin) [nM]	IC50, cell viability 72 h (AZD7648) [nM]	IC50, cell viability 72 h (Dasatinib) [nM]	IC50, cell viability 72 h (Olaparib) [nM]	IC50, cell viability 72 h (AZD5991) [nM]	IC50, cell viability 72 h (AZD0156) [nM]	IC50, cell viability 72 h (AZD1775) [nM]	IC50, cell viability 72 h (Alisertib) [nM]	IC50, cell viability 72 h (Gefitinib) [nM]	IC50, cell viability 72 h (Crizotinib) [nM]	IC50, cell viability 72 h (SN-38) [nM]	IC50, cell viability 72 h (AZD6738) [nM]	IC50, cell viability 72 h (Lapatinib) [nM]	IC50, cell viability 72 h (Selumetinib) [nM]	IC50, cell viability 72 h (Prexasertib) [nM]	IC50, cell viability 72 h (AZD4320) [nM]	IC50, cell viability 72 h (Savolitinib) [nM]	IC50, cell viability 72 h (AZD2811) [nM]	IC50, cell viability 72 h (Capivasertib) [nM]	IC50, cell viability 72 h (Venetoclax) [nM]	IC50, cell viability 72 h (Palbociclib) [nM]	IC50, cell viability 72 h (Taselisib) [nM]	IC50, cell viability 72 h (Trametinib) [nM]	IC50, cell viability 72 h (AZD5153) [nM]	IC50, cell viability 72 h (AZD8186) [nM]
AM-38 (Glioblastoma)	> 1	> 300	694	> 10000	> 2000	> 10000	> 1000	> 3000	2610	> 10000	> 10000	> 10000	22.7	4800	> 10000	3750	126	> 1000	> 1000	> 1000	> 10000	> 1000	> 10000	> 10000	71.7	> 1000	> 3000
BHT-101 (Thyroid Gland Carcinoma)	> 1	> 300	> 1000	> 10000	1100	> 10000	> 1000	> 3000	> 3000	1850	> 10000	8670	30.9	9260	> 10000	1360	293	> 1000	> 1000	> 1000	> 10000	> 1000	9120	6450	18.2	60.1	> 3000
CL-11 (Colorectal Carcinoma)	> 1	> 300	> 1000	> 10000	> 2000	> 10000	> 1000	> 3000	859	527	> 10000	> 10000	57.9	3040	> 10000	1060	90.3	> 1000	> 1000	> 1000	> 10000	> 1000	> 10000	> 10000	33.5	224	> 3000
DBTRG-05MG (Glioblastoma)	> 1	> 300	> 1000	> 10000	> 2000	> 10000	> 1000	> 3000	> 3000	> 10000	> 10000	> 10000	> 300	> 10000	> 10000	> 10000	> 1000	> 1000	> 1000	> 1000	> 10000	> 1000	> 10000	> 10000	> 1000	> 1000	> 3000
HT-1080 (Other Solid Carcinomas)	> 1	> 300	> 1000	> 10000	> 2000	> 10000	> 1000	> 3000	> 3000	> 10000	> 10000	> 10000	> 300	> 10000	> 10000	> 10000	536	721	> 1000	> 1000	> 10000	> 1000	> 10000	> 10000	> 1000	> 1000	> 3000
MM1S (Plasma Cell Myeloma)	> 1	> 300	459	> 10000	> 2000	> 10000	325	1690	720	> 10000	> 10000	6080	10.1	9520	> 10000	> 10000	30.1	153	> 1000	> 1000	545	> 1000	> 10000	207	> 1000	347	> 3000
MOLP-8 (Plasma Cell Myeloma)	> 1	> 300	407	> 10000	> 2000	> 10000	48.5	1740	465	5240	> 10000	2650	48.4	3830	> 10000	> 10000	24.5	> 1000	> 1000	> 1000	8910	> 1000	> 10000	439	> 1000	49.5	> 3000
MOLT-13 (T-Lymphoblastic Leukemia)	> 1	> 300	467	> 10000	> 2000	> 10000	52.8	> 3000	440	177	> 10000	4260	3.85	2370	5860	5270	16.5	33.8	> 1000	42.7	> 10000	416	5570	> 10000	459	35.7	> 3000
